Laboratory results taken from US12398101B2, “Herbicidal 2-azaspiro[3-5]nonane compounds” (SYNGENTA CROP PROTECTION AG, priority 2018, dated 2025).

Columns and labels:
Assay type in all cases: in vivo
barley = assay: Prior art comparison, post-emergence, crop plants
wheat = assay: Prior art comparison, post-emergence, crop plants; details: for Wheat (percentage damage): post-emergence
[1] = tested on: Panicum miliaceum (PANMI); assay: Prior art comparison, post-emergence, representative weed; details: for PANMI (percentage damage): post-emergence
Avena fatua (AVEFA) [2] = assay: Glasshouse herbicide test, post-emergence application; details: 250 g/h, evaluated after 13 days
Description: (§1) Seeds of a variety of test species are sown in standard soil in pots (Lolium perenne (LOLPE), Setaria faberi (SETFA), Echinochloa crus-galli (ECHCG), Avena fatua (AVEFA)). After cultivation for one day (pre-emergence) or after 8 days cultivation (post-emergence) under controlled conditions in a glasshouse (at 24/16° C., day/night; 14 hours light; 65% humidity), the plants are sprayed with an aqueous spray solution derived from the formulation of the technical active ingredient in acetone/water (50:50) solution containing 0.5% Tween 20 (polyoxyethelyene sorbitan monolaurate, CAS RN 9005-64-5). Compounds are applied at 250 g/h. The test plants are then grown in a glasshouse under controlled conditions in a glasshouse (at 24/16° C., day/night; 14 hours light; 65% humidity) and watered twice daily. After 13 days for pre and post-emergence, the test is evaluated for the percentage damage caused to the plant. The biological activities are shown in the following table on a five point scale (5=80-100%; 4=60-79%; 3=40-59%; 2=20-39%; 1=0-19%).

Lolium perenne (LOLPE) [3] = assay: as above; details: 250 g/h, evaluated after 13 days
Description: as §1

[4] = tested on: Echinochloa crus-galli (ECHCG); assay: as above; details: 250 g/h, evaluated after 13 days
Description: as §1

Setaria faberi (SETFA) [5] = assay: as above; details: 250 g/h, evaluated after 13 days
Description: as §1

Avena fatua (AVEFA) [6] = assay: Glasshouse herbicide test, pre-emergence application; details: 250 g/h, evaluated after 13 days
Description: as §1

Lolium perenne (LOLPE) [7] = assay: as above; details: 250 g/h, evaluated after 13 days
Description: as §1

[8] = tested on: Echinochloa crus-galli (ECHCG); assay: as above; details: 250 g/h, evaluated after 13 days
Description: as §1

Setaria faberi (SETFA) [9] = assay: as above; details: 250 g/h, evaluated after 13 days
Description: as §1

Row | SMILES | Barley (percentage damage) (barley; Rate 60) | Barley (percentage damage) (barley; Rate 125) | Wheat (percentage damage) (wheat; Rate 60) | Wheat (percentage damage) (wheat; Rate 60 + CQC (safener cloquintocet-mexyl at 50 g/ha)) | Wheat (percentage damage) (wheat; Rate 125) | crop safety vis-à-vis prior art compound C1 (wheat; wheat and barley, summary of Table B3) | PANMI (percentage damage) ([1]; Rate 60) | PANMI (percentage damage) ([1]; Rate 125) | overall weed control ([1]; summary of Table B3) | percentage damage caused to the plant, five point scale, AVEFA (Avena fatua (AVEFA) [2]) | percentage damage caused to the plant, five point scale, LOLPE (Lolium perenne (LOLPE) [3]) | percentage damage caused to the plant, five point scale, ECHCG [4] | percentage damage caused to the plant, five point scale, SETFA (Setaria faberi (SETFA) [5]) | percentage damage caused to the plant, five point scale, AVEFA (Avena fatua (AVEFA) [6]) | percentage damage caused to the plant, five point scale, LOLPE (Lolium perenne (LOLPE) [7]) | percentage damage caused to the plant, five point scale, ECHCG [8] | percentage damage caused to the plant, five point scale, SETFA (Setaria faberi (SETFA) [9])
1 | CC#Cc1cc(C)c(C2C(=O)CC3(CC2=O)CN(C(C)=O)C3)c(C)c1 [Compound 1.001, 2-acetyl-7-(2,6-dimethyl-4-prop-1-ynyl-phenyl)-2-azaspiro[3.5]nonane-6,8-dione] | 0 | 0 | 0 | 0 | 0 | significantly improved crop safety | 100 | 100 | good overall weed control | 5 (5=80-100%) | 5 (5=80-100%) | 5 (5=80-100%) | 5 (5=80-100%) | 5 (5=80-100%) | 5 (5=80-100%) | 2 (2=20-39%) | 5 (5=80-100%)
2 | CC#Cc1cc(C)c(C2C(=O)CC3(CC2=O)CN(C(=O)CC#N)C3)c(C)c1 [Compound 1.012] | – | – | – | – | – | – | – | – | – | 4 (4=60-79%) | 5 (5=80-100%) | 5 (5=80-100%) | 5 (5=80-100%) | 5 (5=80-100%) | 5 (5=80-100%) | 5 (5=80-100%) | 5 (5=80-100%)
